Strand notation (5' to 3'): a small letter for the sugar, then the base; units joined by * are phosphorothioate-linked, units joined directly phosphodiester-linked; [ ] holds rarer units or linkages, { } end groups; capitals alone tell only the bases. d = 2'-deoxy (DNA); m = 2'-O-methyl; r = 2'-OH (RNA)
Tests used:
lnc-FAM164A1 = assay: Silencing of lnc-FAM164A1 by antisense and si-RNA oligonucleotides on human PBMC-derived macrophages (RT-PCR); format: cell-based; details: for potency of silencing of lnc-FAM164A1: compared among 10 different siRNA oligonucleotides in human macrophages
Description: (§1) Silencing of lnc-FAM164A1 by antisense and si-RNA oligonucleotides on human PBMC-derived macrophages. Lnc-FAM164A1 RNA silencing was performed on human PBMC-derived macrophagesas using SilenceMag (BOCA Scientific, Boca Raton, Fla.) at final concentration of 50-100 nM.32 36-48 hours after transfection, macrophages were stimulated by 10 ng/mL LPS for 2-6 hours before collection of macrophages and cell culture medium. Anti-sense LNATM long RNA GepmeR oligonucleotides target lnc-FAM164A1 (Sequence 5′-GGTAAGAAATAGGTTG-3′(SEQ ID NO: 52)) and nonspecific negative control oligonucleotides (Sequence 5′-AACACGTCTATACGC-3′(SEQ ID NO: 53)) were designed by Exiqon A/S (Vedbaek, Denmark). Si-RNA Oligonucleotides targeting lnc-FAM164A1 and luciferase control siRNA oligos were designed by Axolabs (Kulmback, Germany). Their sequences and chemical modifications are as follows (A, G, U, C: RNA nucleotide; a, g, u, c: 2′-O-methyl-nucleotide, s: Phosphorothioate, dT: desoxy-T residue): Luciferase control siRNA (XD-00194): Sense strand: 5′-cuuAcGcuGAGuAcuucGAdTsdT-3′ (SEQ ID NO: 54); Antisense strand: 5′-UCGAAGuACUcAGCGuAAGdTsdT-3′ (SEQ ID NO: 4). Lnc-FAM164A1 specific siRNA oligo#5 (XD-05325): 5′-ucAccAuuAucuucAuAcudTsdT-3′(SEQ ID NO: 5) Antisense strand: 5′-AGuAUGAAGAuAAUGGUGAdTsdT-3′ (SEQ ID NO: 6). Lnc-FAM164A1 specific siRNA oligo#8 (XD-05328): 5′-uguGcuAAAAuAcuGAGAudTsdT-3′ (SEQ ID NO: 7); Antisense strand: 5′-AUCUcAGuAUUUuAGcAcAdTsdT-3′ (SEQ ID NO: 8).
RNA extraction and RT-PCR. Total RNA were extracted using an Illustra RNAspin Mini kit (GE Healthcare, Piscataway, N.J.) and the genomic DNA was removed by on-column DNase I digestion at RT for 15 minutes. cDNAs were synthesized using a high capacity cDNA reverse transcription kit (Applied Biosystems, Carlsbad, Calif.). Real-time PCR was performed on a 7900HT fast real-time PCR system (Applied Biosystems). […]

[1] = test system: human PBMC-derived macrophages; assay: Cytokine/chemokine mRNA (RT-PCR) and protein (ELISA) in LPS-activated human PBMC-derived macrophages after lnc-FAM164A1 silencing; format: cell-based; details: for TNF-α mRNA: FIG. 11E
Description: as §1
(§2) RNA extraction and RT-PCR. Total RNA were extracted using an Illustra RNAspin Mini kit (GE Healthcare, Piscataway, N.J.) and the genomic DNA was removed by on-column DNase I digestion at RT for 15 minutes. cDNAs were synthesized using a high capacity cDNA reverse transcription kit (Applied Biosystems, Carlsbad, Calif.). Real-time PCR was performed on a 7900HT fast real-time PCR system (Applied Biosystems). Taqman probe and primers for lnc-FAM164A1 were designed by Integrated DNA Technologies and listed as follows: Probe: 5′-/56-FAM/ATGG CCTCA/ZEN/GTTAGGACTGCTTGG/3IABkFQ/-3′ (SEQ ID NO: 9); Primer1: 5′-GATGGGTGC TGGGAGTATAAG-3′ (SEQ ID NO: 10); Primer2: 5′-[…]-3′ (SEQ ID NO: 11). Other Taqman probes for IL-1β, IL-6, IL-10, CCL2, TNF-α, and GAPDH was purchased from Life Technologies. Relative expression of each gene was normalized by GAPDH.
ELISA. Duoset ELISA kits (R&D systems, Minneapolis, Minn.) were used to detect the levels of cytokines (human and mouse CCL2, IL-6, TNF-α) in culture medium from macrophages or mouse plasma.

NF-κB signaling = assay: NF-κB inhibitor pretreatment of LPS-stimulated PBMC-derived macrophages (RT-PCR); format: cell-based, human; details: 3-30 μM, dose-dependent; 30 minutes pretreatment, 10 ng/mL LPS 6 hours
Description: FIGS. 10A and 18B. (FIG. 10A) Time course of lnc-FAM164A1 and cytokines expression in LPS-stimulated PBMC-derived macrophages. Human PBMC-derived macrophages were stimulated with 10 ng/mL LPS for 6, 12 and 24 hours. Lnc-FAM164A1 RNA, IL-1β, IL-6 and TNF-α mRNA expression were determined by RT-PCR and normalized by GAPDH expression. (Representative results of 2 different donors). […] Human PBMC-derived macrophages were pretreated with 3-30 μM […] for 30 minutes before the stimulation with 10 ng/mL LPS for 6 hours. Lnc-FAM164A1 RNA, IL-1β, IL-6 and TNF-α mRNA expression were determined by RT-PCR and normalized by GAPDH expression (Representative data from 2 different donors).
as §2, with “Other Taqman probes for IL-1β, IL-6, IL-10, CCL2, TNF-α, and GAPDH was purchased from Life Technologies. Relative expression of each gene was normalized by GAPDH.” left out

[2] = test system: human PBMC-derived macrophages; assay: Induction of lnc-FAM164A1 expression in human PBMC-derived macrophages (RT-PCR); format: cell-based; details: 10 ng/mL cytokine, 3 hours
Description: FIGS. 1A-1E show LPS treatment increases the expression of lnc-FAM164A1 in human macrophages, PBMCs and white blood cells in humanized Hu-CD34 NSG mice. […] Human PBMC-derived macrophages were stimulated with 10 ng/mL LPS for 3h or 6h (FIG. 1B, P<0.05 LPS vs control; n=5-6 different donors). Human PBMC was isolated from citrated whole blood derived stimulated with 10 ng/mL LPS for 6 hours ex vivo (FIG. 1C, P<0.05 LPS vs control; n=3-4 different donors). Hu-CD34 NSG mice were stimulated with 5 mg/kg of LPS for 6 hours (FIG. 1D, P<0.05, NSG control vs NSG +LPS, n=4 mice per group). Relative fold change of the lnc-FAM164A1 expression was determined by RT-PCR (FIGS. 1B-1D). […]
FIG. 9A-9C show human PBMC-derived macrophages were stimulated with 10 ng/mL human IL-6 and TNF-α for 3 hours. Relative fold change of the lnc-FAM164A1 expression was determined by RT-PCR (P<0.05 LPS vs control; n=3-4 different donors) (FIG. 9A). […] Expression of lnc-FAM164A1 RNA in liver, spleen and lung isolated from the endotoxemic mice was determined by RT-PCR (P<0.05, Spleen vs Lung; n=4 mice per group) (FIG. 9B). […] Lnc-FAM164A1 RNA, IL-1β and GAPDH mRNA expression were determined by RT-PCR and shown as the ratio of nuclear/cytoplasmic in unstimulated macrophages (Left Panel) and LPS-treated macrophages (Right Panel) (n=2 different donors). […]

[3] = LPS-stimulated human macrophages

5′-GGTAAGAAATAGGTTG-3′ (LNA gapmer, pattern and linkages not given here) [anti-sense oligonucleotides]
silencing efficacy of lnc-FAM164A1 (lnc-FAM164A1; human macrophages, FIG. 11A): at least 50% | LPS-induced CCL2 mRNA expression and protein release [1, 3]: significant suppressed | LPS-induced IL-6 mRNA expression and protein release [1, 3]: significant suppressed | LPS-induced TNF-α mRNA expression and protein release [1, 3]: significant suppressed | expression of anti-inflammatory cytokine IL-10 ([1]; control and LPS-treated macrophages): no changes

5′-ucAccAuuAucuucAuAcudTsdT-3′ (sense mUmCrAmCmCrAmUmUrAmUmCmUmUmCrAmUrAmCmUdT*dT; antisense rArGmUrArUrGrArArGrAmUrArArUrGrGrUrGrAdT*dT; siRNA) [#5]
potency of silencing of lnc-FAM164A1 (lnc-FAM164A1): higher potency of silencing than the others | LPS-induced CCL2 mRNA expression and protein release [1, 3]: decreased expression | LPS-induced IL-6 mRNA expression and protein release [1, 3]: decreased expression | TNF-α mRNA [1, 3]: No significant change

5′-uguGcuAAAAuAcuGAGAudTsdT-3′ (sense mUmGmUrGmCmUrArArArAmUrAmCmUrGrArGrAmUdT*dT; antisense rArUrCrUmCrArGmUrArUrUrUmUrArGmCrAmCrAdT*dT; siRNA) [#8]
potency of silencing of lnc-FAM164A1 (lnc-FAM164A1): higher potency of silencing than the others | LPS-induced CCL2 mRNA expression and protein release [1, 3]: decreased expression | LPS-induced IL-6 mRNA expression and protein release [1, 3]: decreased expression | TNF-α mRNA [1, 3]: No significant change

Cc1ccc(S(=O)(=O)/C=C/C#N)cc1 [Bay 11-7802]
transcription of cytokines (IL-1β, IL-6 and TNF-α mRNA) (NF-κB signaling): blocks the transcription | transcription of lnc-FAM164A1 (NF-κB signaling): blocks the transcription

IL-6: human IL-6, pro-inflammatory cytokine used as stimulus at 10 ng/mL
lnc-FAM164A1 expression [2]: increased the expression

TNF-α
lnc-FAM164A1 expression [2]: increased the expression

— patent US20200237800A1, “METHODS AND COMPOSITIONS FOR THE TREATMENT OF INFLAMMATORY DISEASE” (THE BRIGHAM AND WOMEN'S HOSPITAL, INC., priority 2017, published 2020)
